These results are taken from US20190094204A1, “MEMBRANE TRANSPORTER ASSAY AND METHODS OF USE” (Howard Hughes Medical Institute, priority 2017, published 2019).

“Also recorded” adds a separate entry of the source.

The target in assay [1] is T1, EAAT2 (Homo sapiens, UniProt P43004).
T1 construct: expressed in transfected cells; host or cells: HEK-293 (ATCC #CRL-1573)
In words: OSTA of EAAT2-mediated glutamate transport (cytosolic iGluSnFR). It is filed as cell-based. Particulars: for effect on EAAT2 activity (negative control): 10 mM sodium salicylate, same Na+/K+/glutamate stimulus.

Assay [2] addresses T1, EAAT2. Particulars: EAAT2 inhibitor; Tsukada et al., 2005 Neuropharmacology 48:479-491; cited from earlier work.
The target in assay [3] is SLC26a3 (Homo sapiens, UniProt P40879). Particulars: washout after 10 mM salicylate; HEK-293 cells expressing SLC26a3.
SLC26a3, sequence (P40879 whole entry, species assumed): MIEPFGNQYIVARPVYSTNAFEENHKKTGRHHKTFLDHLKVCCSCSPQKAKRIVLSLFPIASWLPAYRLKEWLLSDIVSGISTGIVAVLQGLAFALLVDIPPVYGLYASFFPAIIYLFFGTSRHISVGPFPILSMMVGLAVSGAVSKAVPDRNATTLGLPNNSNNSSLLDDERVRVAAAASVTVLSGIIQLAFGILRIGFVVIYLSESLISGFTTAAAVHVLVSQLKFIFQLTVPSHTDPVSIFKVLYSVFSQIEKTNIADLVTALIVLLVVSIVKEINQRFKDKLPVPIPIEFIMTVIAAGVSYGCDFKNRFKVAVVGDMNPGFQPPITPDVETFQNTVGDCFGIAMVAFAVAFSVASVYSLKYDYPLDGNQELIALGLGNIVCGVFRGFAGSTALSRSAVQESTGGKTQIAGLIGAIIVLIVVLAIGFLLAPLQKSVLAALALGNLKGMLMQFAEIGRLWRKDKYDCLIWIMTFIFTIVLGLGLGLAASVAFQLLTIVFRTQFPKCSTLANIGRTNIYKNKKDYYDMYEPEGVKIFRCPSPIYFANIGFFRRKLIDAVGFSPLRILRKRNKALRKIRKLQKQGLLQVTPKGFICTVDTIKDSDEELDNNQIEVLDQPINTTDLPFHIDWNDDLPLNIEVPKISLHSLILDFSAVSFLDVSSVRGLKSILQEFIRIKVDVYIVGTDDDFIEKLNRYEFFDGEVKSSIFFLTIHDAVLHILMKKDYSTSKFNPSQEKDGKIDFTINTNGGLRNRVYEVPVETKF

T1 sequence (P43004 whole entry, species assumed): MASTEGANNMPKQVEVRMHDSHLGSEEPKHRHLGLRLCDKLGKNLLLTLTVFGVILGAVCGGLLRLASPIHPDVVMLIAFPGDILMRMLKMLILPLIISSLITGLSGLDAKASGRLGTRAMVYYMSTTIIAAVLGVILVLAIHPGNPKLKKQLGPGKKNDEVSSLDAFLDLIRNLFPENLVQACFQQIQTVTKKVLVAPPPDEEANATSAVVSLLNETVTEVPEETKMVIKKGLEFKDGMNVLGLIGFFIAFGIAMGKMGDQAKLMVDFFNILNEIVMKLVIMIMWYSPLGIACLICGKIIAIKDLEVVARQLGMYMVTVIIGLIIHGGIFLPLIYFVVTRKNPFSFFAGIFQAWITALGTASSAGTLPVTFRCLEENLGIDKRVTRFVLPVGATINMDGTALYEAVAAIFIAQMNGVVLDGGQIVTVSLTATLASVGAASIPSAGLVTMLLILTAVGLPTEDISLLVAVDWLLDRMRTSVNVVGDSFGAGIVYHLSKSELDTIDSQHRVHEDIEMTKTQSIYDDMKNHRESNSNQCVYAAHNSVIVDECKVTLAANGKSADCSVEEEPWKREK

On to `N[C@H](C(=O)O)[C@H](OCc1cccc(NC(=O)c2ccc(C(F)(F)F)cc2)c1)C(=O)O` [TFB-TBOA], for which the “onset and washout of EAAT2 inhibition” value in assay [1] (2 μM TFB-TBOA) was “rapid onset and slower washout”. For the same compound, the “effect on EAAT2 glutamate oscillations” value in assay [1] (2 μM TFB-TBOA, combined Na+/K+/glutamate stimulus (0-10 mM glutamate), HEK-293 cells) was “complete abrogation of oscillating signal; also recorded: completely abolished the oscillations”. In addition, in assay [2], the IC50 was roughly 0.017 µM.

Regarding `O=C([O-])c1ccccc1O.[Na+]` [salicylate, sodium salicylate], the “effect on EAAT2 activity (negative control)” value in assay [1] (HEK-293 cells) is reported as “relative indifference”; in assay [1] (HEK-293 cells, listed as sodium salicylate), “no effect on EAAT2 activity”. The “oscillating response after washout” value in assay [3] is given as “return to the initial oscillating response”.

A word on the IC50: it is the concentration that gives 50% inhibition.
